One series deals with T1, G9a (Mus musculus, UniProt Q9Z148).
T1 construct: UNC0642 pre-treated primary neuronal cultures compared to respective controls; endogenous in cells; host or cells: primary mouse cortical neuronal cultures (C57BL/6J embryos)
T1 sequence (Q9Z148 1-1263): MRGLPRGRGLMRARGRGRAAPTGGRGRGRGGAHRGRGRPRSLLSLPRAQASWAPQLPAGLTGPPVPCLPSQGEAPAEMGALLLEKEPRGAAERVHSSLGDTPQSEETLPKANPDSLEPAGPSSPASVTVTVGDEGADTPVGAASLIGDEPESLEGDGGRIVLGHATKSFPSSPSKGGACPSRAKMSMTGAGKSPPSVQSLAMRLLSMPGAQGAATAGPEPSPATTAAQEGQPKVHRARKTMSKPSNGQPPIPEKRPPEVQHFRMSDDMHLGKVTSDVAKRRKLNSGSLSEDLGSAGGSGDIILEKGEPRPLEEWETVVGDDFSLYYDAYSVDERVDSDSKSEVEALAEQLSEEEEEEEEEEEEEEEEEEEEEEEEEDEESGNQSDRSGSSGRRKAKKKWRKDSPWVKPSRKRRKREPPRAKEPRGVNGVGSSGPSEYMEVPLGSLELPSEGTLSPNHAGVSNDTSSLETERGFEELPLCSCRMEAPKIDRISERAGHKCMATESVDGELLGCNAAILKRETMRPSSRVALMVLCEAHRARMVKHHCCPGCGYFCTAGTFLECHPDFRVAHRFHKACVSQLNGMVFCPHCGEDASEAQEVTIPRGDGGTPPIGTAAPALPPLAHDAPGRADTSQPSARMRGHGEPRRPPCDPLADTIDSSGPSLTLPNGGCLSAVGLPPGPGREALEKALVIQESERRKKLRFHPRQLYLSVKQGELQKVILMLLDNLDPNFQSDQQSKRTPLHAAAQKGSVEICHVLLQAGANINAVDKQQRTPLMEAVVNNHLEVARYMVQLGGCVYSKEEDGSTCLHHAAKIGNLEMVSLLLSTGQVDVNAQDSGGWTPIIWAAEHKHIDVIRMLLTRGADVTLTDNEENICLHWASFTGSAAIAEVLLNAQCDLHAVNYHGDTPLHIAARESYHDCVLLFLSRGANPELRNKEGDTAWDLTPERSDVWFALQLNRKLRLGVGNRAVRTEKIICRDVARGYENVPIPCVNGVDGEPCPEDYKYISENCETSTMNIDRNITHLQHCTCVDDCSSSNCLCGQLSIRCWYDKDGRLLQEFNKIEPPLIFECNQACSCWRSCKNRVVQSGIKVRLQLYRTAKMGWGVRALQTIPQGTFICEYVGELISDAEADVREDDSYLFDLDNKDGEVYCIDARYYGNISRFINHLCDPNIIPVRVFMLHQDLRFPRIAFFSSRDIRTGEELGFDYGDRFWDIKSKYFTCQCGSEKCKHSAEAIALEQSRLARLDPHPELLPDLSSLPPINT
Briefly: H3K9me2 / G9a immunofluorescence staining in primary neuronal cultures. The format is cell-based. The procedure:
(§1) For primary cortical cultures pregnant C57BL/6J, or G9afl/fl;Snap25-Cre mice were euthanized. To ensure comparability between genotypes, only embryos from heterozygous breeding's were used. Brainstem tissue of each embryo for genotyping was reserved and cortices were isolated, dissociated and cells were plated at a density of 1 × 10^5 cells per 1 cm^2 on poly-D-lysine-coated wells (5 µM Sigma-Aldrich, cat. no. A-003-M). If not stated otherwise, cells were maintained in neurobasal plus medium (supplemented with B27 plus, penicillin, streptomycin and L-glutamine; Gibco, cat. no. A3582901) at 37°C, 5% CO^2 and a relative humidity of 98%, and treated with 1 µM cytarabine (Sigma-Aldrich, cat. no. BP383) at 1 day in vitro (div) to inhibit glial cell proliferation. If no cytarabine was applied cells were maintained in PNBM medium (supplemented with neural cell survival factor, gentamycin and L-glutamine; Lonza). Throughout, cultures after 14-23 div were used for experiments. G9a inhibitor UNC0642 was used in a concentration of 1 µM and cultures were pre-treated 24 hours before further experimental procedures.
Immunocytochemistry was performed as described previously (15). HiPSC-neurons and mouse neurons were cultivated on 12 mm diameter cover slips or on 96-well plates suited for confocal microscopy, fixed with 4% paraformaldehyde (PFA), incubated in 10% normal donkey's serum (NDS) containing 0.25% Triton X-100, and subsequently immunolabeling was performed. Immunostainings were analyzed with a Zeiss LSM 700 confocal microscope.

Another series has as its system EAE mice. As to the kind of experiment: Experimental autoimmune encephalomyelitis (EAE): clinical score and spinal cord histopathology.
The test system of series [1] is primary neuronal cultures. Briefly: Cytosolic calcium imaging of H2O2-exposed neuronal cultures. The format is cell-based, mouse. The note with it: acute hydrogen peroxide stimulation, UNC0642 vs. DMSO. The method, then:
as §1, with “Throughout, cultures after 14-23 div were used for experiments. G9a inhibitor UNC0642 was used in a concentration of 1 µM and cultures were pre-treated 24 hours before further experimental procedures.” left out
Primary neuronal cultures were seeded on Ibidi 60 µ-Dish Quad (cat. No. 80411) plates. […] Before applying the indicated chemicals, 5-10 min of baseline activity was first recorded. […] For data analysis, mean fluorescence values of every cell were measured using Fiji software (NIH) and normalized to the maximal calcium response after ionomycin challenge. For each cell, mean AUC of the calcium response was calculated using a custom R script.

The test system of series [2] is primary cortical cultures. Briefly: RealTime-Glo cell viability assay, glutamate excitotoxicity. The series is classed as cell-based, mouse. The note with it: G9a-deficient neurons from G9afl/fl;Snap25-Cre mice treated with UNC0642; readout not stated. The method, then:
as §1, with “G9a inhibitor UNC0642 was used in a concentration of 1 µM and cultures were pre-treated 24 hours before further experimental procedures.” left out
RealTime-Glo (Promega, cat. no. G9711) MT cell viability substrate and NanoLuc Enzyme was mixed together, added to neuronal cultures and incubated for 5 hours for equilibration of luminescence signal before respective treatments were applied. Luminescence was acquired with a Spark 10M multimode microplate reader (Tecan) at 37°C and 5% CO2 every 30 min over a total time period of 24 hours. […]

In series [3] the test system is primary neuronal cultures. Briefly: Cytosolic calcium imaging of glutamate-exposed neuronal cultures. The format is cell-based, mouse. The note with it: UNC0642 pre-treatment plus ferroptosis inhibitor (ferrostatin-1). The method, then: as §1
Primary neuronal cultures were seeded on Ibidi 60 µ-Dish Quad (cat. No. 80411) plates. Cultures were infected with an AAV7 containing pAAV-Syn-GCamp6f-WPRE-SV40 (86) (Addgene 100837) at 7-10 div with a 20,000-fold multiplicity of infection (MOI). AAV particles were produced according to the standard procedures of the UKE vector facility. Images were acquired with a confocal LSM 700 laser scanning confocal microscope (Zeiss) every 0.48 seconds with a 20× magnification in an imaging chamber maintaining 37 °C and 5% CO2. Infected cultures were imaged in the respective culture medium. Before applying the indicated chemicals, 5-10 min of baseline activity was first recorded. At the end of the recording, 8 µM ionomycin was applied to induce the maximum cellular calcium response that was used for normalization. For data analysis, mean fluorescence values of every cell were measured using Fiji software (NIH) and normalized to the maximal calcium response after ionomycin challenge. For each cell, mean AUC of the calcium response was calculated using a custom R script.

Setting [4] is: primary neuronal cultures, 1 µM UNC0642 pre-treated 24 hours, vs. DMSO.

For the molecule `COc1cc2c(NC3CCN(C(C)C)CC3)nc(N3CCC(F)(F)CC3)nc2cc1OCCCN1CCCC1` [UNC0642, 2-(4,4-difluoropiperidin-1-yl)-6-methoxy-N-[1-(propan-2-yl)piperidin-4-yl]-7-[3-(pyrrolidin-1-yl)propoxy]quinazolin-4-amine], the “upregulation of H3K9me2 in response to ferroptosis induction” value on G9a (erastin or RSL3, with UNC0642) was “effectively prevented”. At G9a (hydrogen peroxide stimulation, UNC0642 treatment), the “upregulation of H3K9me2 by hydrogen peroxide treatment” value is “still able to overcome this effect”. Besides, at G9a (setting [4]), the G9a protein level result is on record as “did not change” and the “reduction of H3K9me2 signal” value stood at 45%. For the same molecule, in the series on EAE mice (5 mg kg-1 body weight once daily intraperitoneally from symptom onset, vs. vehicle), the EAE disease course result is recorded as “significantly ameliorated EAE disease course”. In the series on EAE mice (EAE, 5 mg kg-1 UNC0642), the body weight changes entry was “not altered”, the immune cell infiltration entry was “not altered” and the microglia activation entry is “not altered”. In addition, the “4-hydroxy-2-nonenal (4-HNE) levels” value in the series with EAE mice (cervical spinal cord sections, chronic EAE, 5 mg kg-1 UNC0642 vs. vehicle) is given as “significantly reduced”. For the same molecule, the “neuronal loss in the spinal cord ventral horn” value in the series with EAE mice (chronic EAE, day 30, 5 mg kg-1 UNC0642) is “reduced neuronal loss”. Moreover, the “hydrogen peroxide-induced calcium overload” value in series [1] was “rescued hydrogen peroxide-induced calcium overload”. Moreover, in series [2], the “additional rescue effect during glutamate stress” value is on record as “no additional rescue effect”. In addition, in series [3], the “potentiation of rescue effects of ferroptosis inhibition on glutamate-induced calcium overload” value was “did not further potentiate the rescue effects of ferroptosis inhibition”.

Values taken from patent EP4268823A1, “COMPOUND FOR TREATING NEUROINFLAMMATION” (Universitätsklinikum Hamburg-Eppendorf, priority 2022, dated 2023).
